# According to patent US11213590B2, “SSTR-targeted conjugates and particles and formulations thereof” (priority 2016, dated 2022):
# Several values for one entry are separate records, joined by “and”; a condition that tells them apart may be missing. Equal values may be shown once. Read-outs that look alike come from different tables or passages of the source.
# Experiments:
# NCI-H69 = experiment: cells; type: cell-based, human; settings: for IC50: 5,000 cells/well
# Description: (§1) The purpose of this study was to determine the receptor-dependent inhibition of proliferation in vitro by the somatostatin targeting conjugate Conjugate 57 and determine the sensitivity to DM1 in the human SSTR2 expressing cancer cell lines: NCI-H69, NCI-H82, NCI-H727 and HCC-33. Cells were incubated with Conjugate 57 for 6 hours, in the presence or absence of an excess of octreotide, a somatostatin analogue. A three-fold serial dilution of Conjugate 57 was used for a total of ten concentration points. After treatment, cells were washed, incubated for an additional period of time, either 72 or 96 hours and proliferation was measured using the CellTiter-Glo® Luminescent Cell Viability Assay. The IC50 of Conjugate 57 was used to determine the inhibiting activity in proliferation assays. To determine DM1 sensitivity a similar method to the Conjugate 57 assay was employed with the additional incubation time points of 30 minutes, 1, 2, and 4 hours and the exclusion of the pre-treatment with octreotide. DM1 effect from the most to least sensitive cell line was determined to be: NCI-H69>HCC-33>NCI-H82>NCI-H727 (Table 5B). […] The addition of excess octreotide (100 μM) competes with Conjugate 57 for binding to the SSTR2 receptor. […] In the NCI-H69 experiments, pre-incubation with an excess of octreotide modestly diminished the activity of Conjugate 57 by 1.6 and 2.4 fold, depending on the assay conditions. In the HCC-33 cell line, activity of Conjugate 57 was 3.2 (±1.4) times higher when dosed alone, compared to when the cells were pre-incubated with octreotide. The small but measureable changes in Conjugate 57 activity in the presence of excess octreotide seen in the NCI-H69 and HCC-33 cell lines supports the receptor dependence of the Conjugate 57 antiproliferative effect seen in vitro. In summary, although all the cell lines tested in these experiments express the SSTR2 protein, they have different levels of sensitivity to the Conjugate 57 conjugate of which the DM1 sensitivity may be a contributing factor.
# NCI-H727 = experiment: cells; type: cell-based, human; settings: for IC50: assay duration 72 h
# Description: as §1
# NCI-H82 = experiment: cells; type: cell-based, human; settings: for IC50: assay duration 72 h
# Description: as §1
# [1] = tested on: HCC-33 (small cell lung cancer) xenograft; experiment: HCC-33 xenograft efficacy; type: in vivo
# Description: HCC-33 (small cell lung cancer) xenograft was chosen to study efficacy of Conjugate 57. In some groups, Conjugate 57 was given at 1.0 mg/kg, 0.5 mg/kg or 0.33 mg/kg every week for 30 days, a total of four doses for each animal. In some other groups, Conjugate 57 was also given at 0.5 mg/kg or 0.25 mg/kg twice a week for 30 days, a total of 8 total doses for each animal.
# SSTR2 = SSTR2 (Homo sapiens, UniProt P30874); experiment: SSTR2 receptor internalization in H524-MD tumor xenograft (IHC staining); type: in vivo; design: highly expressing SSTR2 positive (SSTR2+) tumor xenograft; endogenous in cells
# SSTR2, sequence (P30874 whole entry): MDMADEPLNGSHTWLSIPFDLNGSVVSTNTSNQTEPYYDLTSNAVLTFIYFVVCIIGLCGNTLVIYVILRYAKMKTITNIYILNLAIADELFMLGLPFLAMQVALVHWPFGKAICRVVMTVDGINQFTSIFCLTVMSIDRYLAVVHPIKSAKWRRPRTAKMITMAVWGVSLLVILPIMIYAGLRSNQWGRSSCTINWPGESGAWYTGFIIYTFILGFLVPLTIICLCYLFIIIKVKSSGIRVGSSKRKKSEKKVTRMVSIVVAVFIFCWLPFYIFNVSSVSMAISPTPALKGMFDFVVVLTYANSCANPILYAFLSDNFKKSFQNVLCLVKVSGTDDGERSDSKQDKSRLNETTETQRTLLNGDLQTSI
# Description: SSTR2 receptor internalization was studied using Conjugate 57 in a highly expressing SSTR2 positive (SSTR2+) tumor xenograft: H524_MD tumor xenograft. Vehicle (0.1% Solutol/5% Mannitol), Conjugate 57 at 2 mg/kg, scrambled control (BT-984) at 2 mg/kg, and Octreotide at 1.4 mg/kg (ligand alone) were given to SSTR2+ H524-MD tumor xenografts (n=3/group). Timepoints—0 hr (Vehicle), 15 mins, 1 hr, 4 hr, 24 hr and 72 hrs. SSTR2 scoring was done by immunohistochemistry (IHC) staining.
# [2] = 5,000 cells/well, excess octreotide (100 μM), read-out: Inhibition of Proliferation IC50 With Octreotide
# [3] = 5,000 cells/well, read-out: Inhibition of Proliferation IC50 Without Octreotide
# [4] = 10,000 cells/well, excess octreotide (100 μM), read-out: Inhibition of Proliferation IC50 With Octreotide
# [5] = 10,000 cells/well, read-out: Inhibition of Proliferation IC50 Without Octreotide
smiles,measurement,setting,value
COc1cc2cc(c1Cl)N(C)C(=O)C[C@H](OC(=O)[C@H](C)N(C)C(=O)CCSSC[C@H](NC(=O)[C@@H]1CSSC[C@H](NC(=O)[C@H](N)Cc3ccccc3)C(=O)N[C@@H](Cc3ccc(O)cc3)C(=O)N[C@H](Cc3c[nH]c4ccccc34)C(=O)N[C@@H](CCCCN)C(=O)N[C@@H]([C@@H](C)O)C(=O)N1)C(N)=O)[C@]1(C)O[C@H]1[C@H](C)[C@@H]1C[C@@](O)(NC(=O)O1)[C@H](OC)/C=C/C=C(\C)C2 [Conjugate 57],IC50,"NCI-H69; assay duration 72 h, 6 h treatment, read-out: Inhibition of Proliferation IC50 Without Octreotide",108 nM
same,IC50,"NCI-H69; assay duration 72 h, excess octreotide (100 μM), read-out: Inhibition of Proliferation IC50 With Octreotide",258 nM
same,IC50,"NCI-H69; assay duration 96 h, 6 h treatment, read-out: Inhibition of Proliferation IC50 Without Octreotide",167 nM
same,IC50,"NCI-H69; assay duration 96 h, excess octreotide (100 μM), read-out: Inhibition of Proliferation IC50 With Octreotide",271 nM
same,decrease of activity by pre-incubation with excess octreotide,NCI-H69; depending on the assay conditions,1.6 fold and 2.4 fold
same,IC50,NCI-H727; [2],810 nM
same,IC50,NCI-H727; [3],3240 nM
same,IC50,NCI-H727; [4],1900 nM
same,IC50,NCI-H727; [5],2690 nM
same,activity in the presence of excess octreotide,NCI-H727; octreotide 100 μM,not decreased
same,IC50,NCI-H82; [2],128 nM
same,IC50,NCI-H82; [3],106 nM
same,IC50,NCI-H82; [4],1290 nM
same,IC50,NCI-H82; [5],1050 nM
same,activity in the presence of excess octreotide,NCI-H82; octreotide 100 μM,not decreased
same,TGI %,"[1]; 0.25 mg/kg 2x/wk (8 doses), Day 4",−12.5%
same,TGI %,"[1]; 0.25 mg/kg 2x/wk (8 doses), Day 8",50.4%
same,TGI %,"[1]; 0.25 mg/kg 2x/wk (8 doses), Day 11",67.3%
same,TGI %,"[1]; 0.25 mg/kg 2x/wk (8 doses), Day 15",85.8%
same,TGI %,"[1]; 0.25 mg/kg 2x/wk (8 doses), Day 18",92.3%
same,TGI %,"[1]; 0.25 mg/kg 2x/wk (8 doses), Day 22",95.8%
same,TGI %,"[1]; 0.25 mg/kg 2x/wk (8 doses), Day 25",97.2%
same,TGI %,"[1]; 0.25 mg/kg 2x/wk (8 doses), Day 29",97.8%
same,TGI %,"[1]; 0.33 mg/kg every week (4 doses), Day 4",2.1%
same,TGI %,"[1]; 0.33 mg/kg every week (4 doses), Day 8",34.2%
same,TGI %,"[1]; 0.33 mg/kg every week (4 doses), Day 11",48%
same,TGI %,"[1]; 0.33 mg/kg every week (4 doses), Day 15",62.4%
same,TGI %,"[1]; 0.33 mg/kg every week (4 doses), Day 18",73.8%
same,TGI %,"[1]; 0.33 mg/kg every week (4 doses), Day 22",79%
same,TGI %,"[1]; 0.33 mg/kg every week (4 doses), Day 25",83.4%
same,TGI %,"[1]; 0.33 mg/kg every week (4 doses), Day 29",78.5%
same,TGI %,"[1]; 0.5 mg/kg 2x/wk (8 doses), Day 4",0.5%
same,TGI %,"[1]; 0.5 mg/kg 2x/wk (8 doses), Day 8",61.6%
same,TGI %,"[1]; 0.5 mg/kg 2x/wk (8 doses), Day 11",78.3%
same,TGI %,"[1]; 0.5 mg/kg 2x/wk (8 doses), Day 15",91.8%
same,TGI %,"[1]; 0.5 mg/kg 2x/wk (8 doses), Day 18",96.2%
same,TGI %,"[1]; 0.5 mg/kg 2x/wk (8 doses), Day 22",97.6%
same,TGI %,"[1]; 0.5 mg/kg 2x/wk (8 doses), Day 25",99.1%
same,TGI %,"[1]; 0.5 mg/kg 2x/wk (8 doses), Day 29",99.2%
same,TGI %,"[1]; 0.5 mg/kg every week (4 doses), Day 4",1.6%
same,TGI %,"[1]; 0.5 mg/kg every week (4 doses), Day 8",60.3%
same,TGI %,"[1]; 0.5 mg/kg every week (4 doses), Day 11",68.8%
same,TGI %,"[1]; 0.5 mg/kg every week (4 doses), Day 15",82.7%
same,TGI %,"[1]; 0.5 mg/kg every week (4 doses), Day 18",87.1%
same,TGI %,"[1]; 0.5 mg/kg every week (4 doses), Day 22",91.1%
same,TGI %,"[1]; 0.5 mg/kg every week (4 doses), Day 25",93.6%
same,TGI %,"[1]; 0.5 mg/kg every week (4 doses), Day 29",89.5%
same,TGI %,"[1]; 1.0 mg/kg every week (4 doses), Day 4",25.8%
same,TGI %,"[1]; 1.0 mg/kg every week (4 doses), Day 8",69.9%
same,TGI %,"[1]; 1.0 mg/kg every week (4 doses), Day 11",84.4%
same,TGI %,"[1]; 1.0 mg/kg every week (4 doses), Day 15",93.6%
same,TGI %,"[1]; 1.0 mg/kg every week (4 doses), Day 18",97.4%
same,TGI %,"[1]; 1.0 mg/kg every week (4 doses), Day 22",99.2%
same,TGI %,"[1]; 1.0 mg/kg every week (4 doses), Day 25",99.8%
same,TGI %,"[1]; 1.0 mg/kg every week (4 doses), Day 29",99.7%
same,Body weights,"[1]; HCC-33 xenograft, all groups",good
same,tolerability of multiple doses,"[1]; HCC-33 xenograft, weekly or twice weekly dosing for 30 days",well tolerated
same,SSTR2 receptor internalization/distribution in vivo,"SSTR2; 2 mg/kg, H524-MD tumor xenograft",significant receptor internalization/distribution
same,"SSTR2 receptor internalization, intensity of staining analysis","SSTR2; 2 mg/kg, versus BT-984 and naïve at 1 hr, 4 hr and 72 hours",significantly different results
same,"SSTR2 internalization, distribution of staining analysis","SSTR2; 2 mg/kg, versus BT-984 and naïve at 4 hr, 24 hr and 72 hours",significantly different results
same,SSTR2 internalization compared with octreotide alone,"SSTR2; Conjugate 57 2 mg/kg, octreotide 1.4 mg/kg",more SSTR2 internalization than octreotide alone
